Measurements: PubChem BioAssay AID1259411 (Chemical Carcinogenesis Research Information System (CCRIS), 2018)
Active and inactive are the calls of the source. The rule behind the calls is not given here.

System: rodent carcinogenicity bioassays, tumor incidence
Assay: CCRIS carcinogenicity studies
Summary of the method: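 NCI-built, expert-reviewed records of carcinogenicity and related test outcomes (mutagenicity, tumor promotion/inhibition) compiled from published and report sources, historical span 1985-2011, not updated.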

`CC[C@H](OC(C)=O)C(C[C@H](C)N(C)C)(c1ccccc1)c1ccccc1` was tested, and the carcinogen call (Species: MOUSE, Strain/Sex: B6C3F1/FEMALE, Route: ORAL, Dose: 0, 7.6, 30.1 MG/KG IN DIET FOR DURATION OF STUDY (STUDY DURATION: 24 MO), Dose: 0, 7.6, 30.1 MG/KG IN DIET FOR DURATION OF STUDY (STUDY DURATION: 24 MO)) was “inactive; negative”, the carcinogen call (Species: MOUSE, Strain/Sex: B6C3F1/MALE, Route: ORAL, Dose: 0, 7.6, 30.1 MG/KG IN DIET FOR DURATION OF STUDY (STUDY DURATION: 24 MO), Dose: 0, 7.6, 30.1 MG/KG IN DIET FOR DURATION OF STUDY (STUDY DURATION: 24 MO)) was “inactive; negative” and the carcinogen call (Species: RAT, Strain/Sex: F344/FEMALE, Route: ORAL, Dose: 0, 5.7, 16.6 MG/KG IN DIET FOR DURATION OF STUDY (STUDY DURATION: 24 MO), Dose: 0, 5.7, 16.6 MG/KG IN DIET FOR DURATION OF STUDY (STUDY DURATION: 24 MO), Tumor Site: Type of Lesion: LIVER: ADENOMA OR CARCINOMA, UTERUS: ENDOMETRIAL STROMAL POLYP) was “active; positive”. The carcinogen call (Species: RAT, Strain/Sex: F344/MALE, Route: ORAL, Dose: 0, 3.1, 9.7 MG/KG IN DIET FOR DURATION OF STUDY (STUDY DURATION: 24 MO), Dose: 0, 3.1, 9.7 MG/KG IN DIET FOR DURATION OF STUDY (STUDY DURATION: 24 MO), Tumor Site: Type of Lesion: LIVER: ADENOMA OR CARCINOMA) was “active; positive”.
In the case of `ClCCN(CCCl)c1ccc2ccccc2c1`, the carcinogen call (Species: HUMAN, Route: ORAL, Tumor Site: Type of Lesion: URINARY BLADDER) is reported as “active; positive”, the carcinogen call (Species: MOUSE, Strain/Sex: STRAIN-A, Route: INTRAPERITONEAL, Dose: 75, 300, 1200, 4800 MG/KG IN 12 DOSES OVER 4 WK, Dose: 75, 300, 1200, 4800 MG/KG IN 12 DOSES OVER 4 WK, Tumor Site: Type of Lesion: LUNG: ADENOMA) is reported as “active; positive” and the carcinogen call (Species: RAT, Route: SUBCUTANEOUS, Dose: 40 MG IN REPEATED DOSES, Tumor Site: Type of Lesion: INJECTION SITE) is reported as “active; positive”.
With `CC(=O)OC/C=C(\C)CCC=C(C)C` the carcinogen call (Species: MOUSE, Strain/Sex: B6C3F1/MALE, Route: GAVAGE, Dose: 0, 500 MG/KG OF FOOD GRADE (29% CITRONELLYL ACETATE) IN CORN OIL 5D/WK FOR 102 WK (STUDY DURATION: 104 WK)) was “inactive; negative”, the carcinogen call (Species: RAT, Strain/Sex: F344/FEMALE, Route: GAVAGE, Dose: 0, 1000, 2000 MG/KG OF FOOD GRADE (29% CITRONELLYL ACETATE) IN CORN OIL 5D/WK FOR 103 WK (STUDY DURATION: 104 WK), Dose: 0, 1000, 2000 MG/KG OF FOOD GRADE (29% CITRONELLYL ACETATE) IN CORN OIL 5D/WK FOR 103 WK (STUDY DURATION: 104 WK)) was “inactive; negative” and the carcinogen call (Species: RAT, Strain/Sex: F344/MALE, Route: GAVAGE, Dose: 0, 1000 MG/KG OF FOOD GRADE (29% CITRONELLYL ACETATE) IN CORN OIL 5D/WK FOR 103 WK (STUDY DURATION: 104 WK)) was “inactive; negative”.
For `COc1ccc(N)cc1N`, the carcinogen call (Species: MOUSE, Strain/Sex: B6C3F1/FEMALE, Route: ORAL, Dose: 0, 0.12, 0.24% IN DIET FOR 78 WK (STUDY DURATION: 96-97 WK), Dose: 0, 0.12, 0.24% IN DIET FOR 78 WK (STUDY DURATION: 96-97 WK), Tumor Site: Type of Lesion: THYROID GLAND: FOLLICULAR CELL ADENOMA OR CARCINOMA) was “active; positive”, the carcinogen call (Species: MOUSE, Strain/Sex: B6C3F1/MALE, Route: ORAL, Dose: 0, 0.12, 0.24% IN DIET FOR 78 WK (STUDY DURATION: 96-97 WK), Dose: 0, 0.12, 0.24% IN DIET FOR 78 WK (STUDY DURATION: 96-97 WK), Tumor Site: Type of Lesion: THYROID GLAND: FOLLICULAR CELL ADENOMA) was “active; positive” and the carcinogen call (Species: RAT, Strain/Sex: F344/FEMALE, Route: ORAL, Dose: 0, 0.12, 0.5% TWA, IN DIET FOR 78 WK (STUDY DURATION: 107-110 WK), Dose: 0, 0.12, 0.5% TWA, IN DIET FOR 78 WK (STUDY DURATION: 107-110 WK), Tumor Site: Type of Lesion: THYROID GLAND: ADENOCARCINOMA (NOS) OR FOLLICULAR CELL CARCINOMA OR PAPILLARY CYSTADENOCARCINOMA (NOS), EAR (ZYMBAL GLAN) was “active; positive”. The carcinogen call (Species: RAT, Strain/Sex: F344/MALE, Route: ORAL, Dose: 0, 0.12, 0.5% TWA, IN DIET FOR 78 WK (STUDY DURATION: 107-109 WK), Dose: 0, 0.12, 0.5% TWA, IN DIET FOR 78 WK (STUDY DURATION: 107-109 WK), Tumor Site: Type of Lesion: THYROID GLAND: C CELL ADENOMA OR CARCINOMA, ADENOCARCINOMA (NOS), ADENOCARCINOMA (NOS) OR PAPILLARY ADENOCARCINOMA OR FO) was “active; positive”.
For `Nc1ccc(-c2ccccc2)cc1O`, the carcinogen call (Species: MOUSE, Strain/Sex: SWISS/FEMALE, Route: SUBCUTANEOUS, Dose: 0, 200 UG IN 0.02 ML 3% AQUEOUS GELATIN 1/D FOR 3 D (STUDY DURATION: 52 WK)) was “inactive; negative” and the carcinogen call (Species: MOUSE, Strain/Sex: SWISS/MALE, Route: SUBCUTANEOUS, Dose: 0, 200 UG IN 0.02 ML 3% AQUEOUS GELATIN 1/D FOR 3 D (STUDY DURATION: 52 WK), Tumor Site: Type of Lesion: LIVER: HEPATOMA) was “active; positive”.
`IC(I)I` was tested, and the carcinogen call (Species: MOUSE, Strain/Sex: B6C3F1/FEMALE, Route: GAVAGE, Dose: 0, 47, 93 MG/KG, TWA, Dose: 0, 47, 93 MG/KG, TWA) was “inactive; negative”, the carcinogen call (Species: MOUSE, Strain/Sex: B6C3F1/MALE, Route: GAVAGE, Dose: 0, 47, 93 MG/KG, TWA, Dose: 0, 47, 93 MG/KG, TWA) was “inactive; negative” and the carcinogen call (Species: RAT, Strain/Sex: OSBORNE-MENDEL/FEMALE, Route: GAVAGE, Dose: 0, 27, 55 MG/KG, TWA, Dose: 0, 27, 55 MG/KG, TWA) was “inactive; negative”. The carcinogen call (Species: RAT, Strain/Sex: OSBORNE-MENDEL/MALE, Route: GAVAGE, Dose: 0, 71, 142 MG/KG, TWA, Dose: 0, 71, 142 MG/KG, TWA) was “inactive; negative”.
With `CN(C)C(=O)Nc1ccc(Cl)cc1` the carcinogen call (Species: MOUSE, Strain/Sex: B6C3F1/FEMALE, Route: ORAL, Dose: 0, 5000, 10000 PPM IN DIET FOR 103 WK (STUDY DURATION: 107 WK), Dose: 0, 5000, 10000 PPM IN DIET FOR 103 WK (STUDY DURATION: 107 WK)) was “inactive; negative”, the carcinogen call (Species: MOUSE, Strain/Sex: B6C3F1/MALE, Route: ORAL, Dose: 0, 5000, 10000 PPM IN DIET FOR 103 WK (STUDY DURATION: 107 WK), Dose: 0, 5000, 10000 PPM IN DIET FOR 103 WK (STUDY DURATION: 107 WK)) was “inactive; negative” and the carcinogen call (Species: RAT, Strain/Sex: F344/FEMALE, Route: ORAL, Dose: 0, 750, 1500 PPM IN DIET FOR 103 WK (STUDY DURATION: 106 WK), Dose: 0, 750, 1500 PPM IN DIET FOR 103 WK (STUDY DURATION: 106 WK)) was “inactive; negative”. The carcinogen call (Species: RAT, Strain/Sex: F344/MALE, Route: ORAL, Dose: 0, 750, 1500 PPM IN DIET FOR 103 WK (STUDY DURATION: 106 WK), Dose: 0, 750, 1500 PPM IN DIET FOR 103 WK (STUDY DURATION: 106 WK), Tumor Site: Type of Lesion: LIVER: NEOPLASTIC NODULE, NEOPLASTIC NODULE OR CARCINOMA, KIDNEY: TUBULAR CELL ADENOMA, TUBULAR CELL ADENOCARCINOMA) was “active; positive”.
`CC(N)Cc1ccccc1` (stereo not drawn) was tested, and the carcinogen call (Species: MOUSE, Strain/Sex: B6C3F1/FEMALE, Route: ORAL, Dose: 0, 20, 100 PPM IN DIET FOR 103 WK (STUDY DURATION: 105 WK), Dose: 0, 20, 100 PPM IN DIET FOR 103 WK (STUDY DURATION: 105 WK)) was “inactive; negative”, the carcinogen call (Species: MOUSE, Strain/Sex: B6C3F1/MALE, Route: ORAL, Dose: 0, 20, 100 PPM IN DIET FOR 103 WK (STUDY DURATION: 105 WK), Dose: 0, 20, 100 PPM IN DIET FOR 103 WK (STUDY DURATION: 105 WK)) was “inactive; negative” and the carcinogen call (Species: RAT, Strain/Sex: F344/FEMALE, Route: ORAL, Dose: 0, 20, 100 PPM IN DIET FOR 103 WK (STUDY DURATION: 105 WK), Dose: 0, 20, 100 PPM IN DIET FOR 103 WK (STUDY DURATION: 105 WK)) was “inactive; negative”. The carcinogen call (Species: RAT, Strain/Sex: F344/MALE, Route: ORAL, Dose: 0, 20, 100 PPM IN DIET FOR 103 WK (STUDY DURATION: 105 WK), Dose: 0, 20, 100 PPM IN DIET FOR 103 WK (STUDY DURATION: 105 WK)) was “inactive; negative”.
